Test results published in patent publication US5212165A, “Method for rehabilitating the vasorelaxant action of the coronary arteries impaired through atherosclerosis or hypercholesterolemia employing an ACE inhibitor” (E. R. Squibb & Sons, Inc., priority 1989, dated 1993).
Read-outs that look alike come from different tables or passages of the source. Blank lines part the entries; values can stand above or below the compound they belong to. No end group written: not given here.

Columns and labels:
[1] = system: vascular relaxation in response to EN-D (ACh) and EN-I (Na nitroprusside) agonists; conditions: rats, cited from earlier work; for vascular relaxations in response to EN-D (ACh) and EN-I (Na nitroprusside) agonists: oral
[2] = system: isolated aorta from hypertensive rats; conditions: cited from earlier work
[3] = system: alpha-adrenoceptor (isolated iliac arteries); assay: Contractile responses to phenylephrine of isolated iliac arteries from cynomolgus monkeys; set-up: species or system cynomolgus (Macaca fascicularis) monkeys; conditions: Mean ± SEM; for EC50: Macaca fascicularis, read-out: EC50 (phenylephrine-induced contraction)
Description: (§1) Twenty-four male cynomolgus (Macaca fascicularis) monkeys were divided into four groups of six animals each. During the course of the study, one of the control monkeys was sacrificed due to ill health unrelated to the study. Each group was fed a different diet for six months. The control group ate a normal diet of monkey biscuit. The cholesterol group ate a specially formulated monkey diet containing cholesterol. The cholesterol +low captopril group ate the cholesterol diet supplemented with captopril (50 mg/kg divided into two daily doses). The cholesterol+high captopril group ate the cholesterol diet and a higher total dose of captopril (100 mg/kg divided into two daily doses).
(§2) The monkeys were sedated with an intramuscular injection of ketamine (10 mg/kg), then anesthetized with pentobarbital (25 mg/kg). The iliac arteries were carefully dissected, cleaned of surrounding connective tissue, and refrigerated overnight for use the following day.
(§3) On the day of the experiment, three iliac rings (3 mm wide) from each animal were cut and mounted for isometric force recording. Each ring was attached to a micrometer for the control of muscle length and to a Grass FT.03 force transducer and Grass 7D recorder. The rings were placed in warm (37° C.), oxygenated, physiological salt solution (PSS) of the following composition (in mM): 140.0 NaCl, 4.7 KCl, 1.2 MgSO4, 1.6 CaCl2, 1.2 NaH2 PO4, 5.6 D-glucose, 2.0 2-(N-morpholino)propanesulfonic acid (MOPS, pH 7.4 at 37° C.), and 0.02 Na2 -ethylenediaminetetraacetic acid (EDTA). The rings were stretched to a preload of 5 g during a 2 hour equilibration period, then stimulated with 1 μM phenylephrine to test for viability and relaxed with 100 nM acetylcholine to test for endothelial function. Stock solutions of phenylphrine, acetylcholine, propranolol, and sodium nitroprusside were prepared daily in water; nifedipine stock solutions were prepared daily in ethanol.
(§4) Alpha-adrenoceptor and endothelial cell function were examined in the third ring from each monkey. In the presence of 0.1 μM propranolol, a cumulative concentration-response curve to phenylephrine was obtained, then the phenylephrine was washed out of the baths and the rings were allowed to relax completely. The rings were subsequently contracted with an EC50 concentration of phenylephrine (1 μM) and, following stabilization of the contraction, the rings were treated with increasing concentrations of acetylcholine, followed by 100 nM sodium nitroprusside.
(§5) Data are presented as mean±SEM. The IC50 and EC50 values were estimated by linearly interpolating from the concentration-response curves. The EC50 values for each ring were used to determine the means for each treatment group.
Phenylephrine concentration-response curves were obtained in iliac rings from all groups of monkeys.

[4] = system: phenylephrine-contracted isolated iliac arteries; assay: Acetylcholine-induced relaxation of phenylephrine-contracted isolated iliac arteries from cynomolgus monkeys; set-up: species or system cynomolgus (Macaca fascicularis) monkeys; conditions: for maximum force generated in response to phenylephrine (before acetylcholine): non-responders excluded, mean±SEM; for EC50: Macaca fascicularis, non-responder excluded, Mean ± SEM
Description: as §1, §2, §3, §4, §5
For each monkey, the EC50 for acetylcholine relaxation was calculated by linearly interpolating from the concentration-response curves. When 50% relaxation was not achieved, the value of the EC50 was set to 30 μM a value larger than any of the experimental concentrations of acetylcholine).
Linear contrast of mean ranks in the groups were constructed with a variance estimate for the contrast based on the Kruskal-Wallis statistic (Dunn 1964).
In the analyses, the following coefficients were employed: i) for an overall test, the coefficients were 3 for the cholesterol group, 1 for the control group, -1 for the cholesterol+low captopril group, and -3 for the cholesterol+high captopril group, based on prior expectations of likely results; ii) for a test of the cholesterol effect, the coefficients were 1 for the cholesterol group, -1 for the control group, 0 for the cholestrol+low captopril group, and 0 for the cholesterol+high captopril group; iii) for a test of the captopril effect, the coefficients were 0 for the cholesterol group, 1 for the […], 0 for the cholesterol+low captopril group, and -1 for the cholesterol+high captopril group.
All statistical results reported are based on one-sided tests. […]

isolated rat hearts = conditions: interaction with ARG-I, ARG-II and BK; Schoelkens et al; cited from earlier work
[5] = system: delayed cerebral arteriospasm; conditions: cited from earlier work
[6] = system: K^+ depolarized arteries (iliac rings); assay: Contractile responses to CaCl2 in K^+ depolarized iliac rings from cynomolgus monkeys; set-up: species or system cynomolgus (Macaca fascicularis) monkeys; conditions: Mean ± SEM
Description: as §1, §2, §3
(§6) The voltage-dependent calcium channels were studied in one ring from each monkey. The protocol consisted of depleting the cells of calcium by exposing the rings to a Ca-free, EGTA (ethylene glycol-bis(β-aminoethyl ether)N,N,N',N'-tetraacetic acid) PSS (omission of CaCl2 and addition of 0.1 mM EGTA) for 30 minutes. The EGTA was subsequently removed from the tissues with three washes of Ca-free PSS (simple omission of CaCl2). Following that, the rings were bathed in Ca-free, K^+ PSS (omission of CaCl2 and isoosmotic substitution of KCl for NaCl such that the KCl concentration was 110 mM) for 30 minutes. A CaCl2 concentration-response curve was obtained by replacing the bath solution with K^+ PSS containing incremental increases in CaCl2 concentration (0.1, 0.3, 0.5, 1.0, 1.25, 1.6, and 2.5 mM). The maximal contractions, in response to 2.5 mM CaCl2, were then relaxed incrementally with nifedipine. Another iliac ring (fade control) from each monkey was subjected to the same protocol with the exception that the strips were allowed to remain contracted and the nifedipine concentration-response curve was not obtained. Some fade of the CaCl2 -induced force was observed over the time period required for the nifedipine concentration-response curve. This fade was accounted for by decreasing the amount of relaxation observed upon addition of nifedipine by the amount of fade observed in the time control from the same monkey.
as §5
Concentration-response curves to CaCl2 in K^+ depolarized rings were obtained following depletion of tissue calcium by repeated washing in Ca-free PSS first with, then without, EGTA. There were no differences in the responses to CaCl2 among any of the treatment groups (Table 1).

rabbit veins = conditions: in vitro; cited from earlier work
rat stomach = conditions: in vitro; cited from earlier work
[7] = system: rabbit or human platelets; conditions: in vitro; cited from earlier work
guinea pig or rat lungs = conditions: infusion through guinea pig or rat lungs; cited from earlier work
rat mesenteric veins = conditions: cited from earlier work
[8] = system: acute cerebral arteriospasm; conditions: after subarachnoid hemorrhage, dog, angiographic; cited from earlier work
[9] = system: delayed cerebral vasospasm of the basilar artery and its branches; conditions: by injection; Gavras et al; cited from earlier work
angina patients = conditions: 12 angina patients; Thuermann et al; cited from earlier work
[10] = system: voltage-dependent calcium channels (iliac rings); assay: Relaxation responses to nifedipine of CaCl2-contracted iliac rings from cynomolgus monkeys; set-up: species or system cynomolgus (Macaca fascicularis) monkeys; conditions: Macaca fascicularis, contracted with 2.5 mM CaCl2 in K^+ PSS, mean±SEM
Description: as §1, §2, §3, §6
Data are presented as mean±SEM. The IC50 and EC50 values were estimated by linearly interpolating from the concentration-response curves. […]

Compound: COc1ccc2c(c1)c(CC(=O)O)c(C)n2C(=O)c1ccc(Cl)cc1 [Indomethacin]
effect on ACh-induced relaxation [1]: did not prevent the effect of ACh
effect on relaxation responses ([2]; isolated aorta, hypertensive and normotensive rats): unaffected

EC50 ([3]; Cholesterol group): 1200 ± 300 nM
EC50 ([3]; Control group): 800 ± 100 nM
Compound: CNC[C@H](O)c1cccc(O)c1 [phenylephrine]
Max Force (phenylephrine-induced contraction) ([3]; Cholesterol group): 17.3 ± 3.3 g
Max Force (phenylephrine-induced contraction) ([3]; Control group): 22.5 ± 1.6 g
maximum force generated in response to phenylephrine (before acetylcholine) ([4]; cholesterol group): 11.0 ± 2.6 g
maximum force generated in response to phenylephrine (before acetylcholine) ([4]; control group): 14.3 ± 1.4 g

Compound: CCOC(=O)[C@H](CCc1ccccc1)N[C@@H](C)C(=O)N1[C@H](C(=O)O)C[C@@H]2CCC[C@@H]21 [ramipril]
local cardioprotective actions (isolated rat hearts): BK is involved in the local cardioprotective actions of RP

Compound: CC(=O)OCC[N+](C)(C)C [acetylcholine]
EC50 ([4]; Cholesterol group, N 5, EC50 set at 30 μM if <50% relaxation): 16200 ± 7200 nM
EC50 ([4]; Control group, N 4): 300 ± 100 nM

Compound: C[C@H](N[C@@H](CCc1ccccc1)C(=O)O)C(=O)N1CCC[C@H]1C(=O)O [MK-422]
restoring arterial width in delayed cerebral arteriospasm ([5]; four dogs, injectable form, unpublished data, preliminary): at least as effective as teprotide

Compound: [Ca+2].[Cl-].[Cl-] [CaCl2]
EC50 ([6]; Cholesterol group): 200000 ± 30000 nM
Max Force (CaCl2) ([6]; Cholesterol group): 18.2 ± 1.6 g
EC50 ([6]; Control group): 140000 ± 10000 nM
Max Force (CaCl2) ([6]; Control group): 18.5 ± 1.1 g

Compound: endothelin: endothelin (EL) (CSCSSLMDKECVYFCHLDIIW; ends and bridges not checked; cysteine pairing not given here; UniProt P05305 53-73, looked up)
contraction of rabbit veins (rabbit veins): contracted rabbit veins
contraction of rat stomach (rat stomach): contracted rabbit veins and rat stomach
platelet aggregation [7]: did not aggregate rabbit or human platelets or prevent their aggregation
release of PG12 and TXA2 (guinea pig or rat lungs): release PG12 and TXA2
vasoconstriction (rat mesenteric veins; at higher doses): vasoconstriction
dilatation of rat mesenteric veins (rat mesenteric veins; via EDRF release): dilated rat mesenteric veins

Compound: CC[C@H](C)[C@H](NC(=O)[C@H](CCC(N)=O)NC(=O)[C@@H]1CCCN1C(=O)[C@H](CCCNC(=N)N)NC(=O)[C@@H]1CCCN1C(=O)[C@H](Cc1c[nH]c2ccccc12)NC(=O)[C@@H]1CCC(=O)N1)C(=O)N1CCC[C@H]1C(=O)N1CCC[C@H]1C(=O)O [teprotide]
effect on acute cerebral arteriospasm [8]: effective
effect on delayed established cerebral arteriospasm ([5]; dog, in vivo): could reverse that spasm as well
release of delayed cerebral vasospasm [9]: partial or total release

Compound: NNc1nncc2ccccc12 [hydralazine]
vascular relaxations in response to EN-D (ACh) and EN-I (Na nitroprusside) agonists [1]: differentially affected vascular relaxations

Compound: Oc1cccc(O)c1O [pyrogallol]
effect on ACh-induced relaxation [1]: did inhibit ACh-induced relaxations

Compound: CCOC(=O)C(CCc1ccccc1)N[C@@H](C)C(=O)N1CCC[C@H]1C(=O)O (stereo partly drawn) [enalapril, N-(1-ethoxycarbonyl-3-phenylpropyl)-L-alanyl-L-proline]
anti-ischemic effect (angina patients): shown to have an anti-ischemic effect
vascular relaxations in response to EN-D (ACh) and EN-I (Na nitroprusside) agonists [1]: differentially affected vascular relaxations
normalization of relaxation responses and prevention of hypertension ([2]; P.o., salt-induced hypertension, rat): ineffective

IC50 ([10]; cholesterol group): 22.8 ± 5.6 nM
IC50 ([10]; cholesterol+high captopril group): 11.5 ± 1.8 nM
IC50 ([10]; cholesterol+low captopril group): 18.8 ± 6.6 nM
IC50 ([10]; control group): 11.4 ± 2.3 nM
Compound: COC(=O)C1=C(C)NC(C)=C(C(=O)OC)C1c1ccccc1[N+](=O)[O-] [nifedipine]
